Test results: the supplement of paper PMC10307832

Legend:
Experiment in all cases: relative viability (nuclei count vs DMSO), 5 days (fraction); higher = more cells survive
GSK126 = compound: CC[C@H](C)N1C=C(C2=C(C=C(C=C21)C3=CN=C(C=C3)N4CCNCC4)C(=O)NCC5=C(C=C(NC5=O)C)C)C [GSK126]
How it was run: (§1)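 On vehicle-anchored 1536-well plates, lung cancer cell lines held overnight at 37 °C were pinned with five library-drug doses (not always all listed) spaced by √10. With no medium change over 5 days, they were then fixed, permeabilised and Hoechst-stained in one step and imaged at 4×. MetaXpress counted nuclei, and viability is the median across plates of treated-well over vehicle-well nuclei. Acceptance needed control CV below 25% and at least one doubling.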

Carboplatin = compound: C1CC(C1)(C(=O)O)C(=O)O.[NH2-].[NH2-].[Pt+2] [Carboplatin]
How it was run: as §1

MLN4924 = compound: NS(=O)(=O)OC[C@@H]1C[C@@H](n2ccc3c(N[C@H]4CCc5ccccc54)ncnc32)C[C@@H]1O [MLN4924]
How it was run: as §1

Carboplatin + Foretinib = compound: C1CC(C1)(C(=O)O)C(=O)O.[NH2-].[NH2-].[Pt+2] [Carboplatin] + COc1cc2c(Oc3ccc(NC(=O)C4(C(=O)Nc5ccc(F)cc5)CC4)cc3F)ccnc2cc1OCCCN1CCOCC1 [Foretinib] (partner 0.25 µM)
How it was run: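 Relative viability is defined as nuclei in treated wells over nuclei in vehicle wells. Duplicate plates were run and medians reported. Lung cancer cell lines in 1536-well plates were dosed by pin tool one day after seeding, with one drug or with a fixed anchor-drug dose plus five library-drug doses (not always all listed) in √10 steps, and nuclei were counted after 5 days.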

Row | Cell Line | relative viability (GSK126; 0.08 µM) | relative viability (GSK126; 0.253 µM) | relative viability (GSK126; 0.8 µM) | relative viability (GSK126; 2.53 µM) | relative viability (GSK126; 8 µM) | relative viability (Carboplatin; 0.08 µM) | relative viability (Carboplatin; 0.253 µM) | relative viability (Carboplatin; 0.8 µM) | relative viability (Carboplatin; 2.53 µM) | relative viability (Carboplatin; 8 µM) | relative viability (MLN4924; 0.04 µM) | relative viability (MLN4924; 0.1265 µM) | relative viability (MLN4924; 0.4 µM) | relative viability (MLN4924; 1.265 µM) | relative viability (MLN4924; 4 µM) | relative viability (Carboplatin + Foretinib; first compound 0.08 µM) | relative viability (Carboplatin + Foretinib; first compound 0.253 µM) | relative viability (Carboplatin + Foretinib; first compound 0.8 µM) | relative viability (Carboplatin + Foretinib; first compound 2.53 µM) | relative viability (Carboplatin + Foretinib; first compound 8 µM)
1 | EPLC-272H | 1.1 | 1.01 | 0.936 | 1.08 | 1.04 | 1.2 | 1.11 | 1.07 | 0.924 | 0.919 | 0.873 | 0.637 | 0.0627 | 0.119 | 0.173 | 0.785 | 0.852 | 0.727 | 0.611 | 0.602
2 | NCI-H1437 | 1.05 | 1 | 0.945 | 0.92 | 0.919 | 1.03 | 0.965 | 0.966 | 0.905 | 0.868 | 0.941 | 0.988 | 0.841 | 0.423 | 0.281 | 1.28 | 1.34 | 1.22 | 1.2 | 1.08
3 | NCI-H2405 | 1.03 | 0.946 | 0.98 | 0.984 | 1.03 | 1.1 | 1 | 1.05 | 1.03 | 0.885 | 1.06 | 0.979 | 0.586 | 0.29 | 0.27 | 1.15 | 1.09 | 0.983 | 0.958 | 0.952
4 | NCI-H1666 | 0.966 | 1.03 | 0.984 | 0.95 | 1.07 | 1.03 | 1.02 | 0.987 | 0.913 | 0.797 | 1.02 | 0.915 | 0.632 | 0.35 | 0.38 | 0.977 | 0.918 | 0.823 | 0.832 | 0.607
5 | NCI-H1993 | 0.97 | 0.982 | 0.955 | 1.02 | 1.03 | 0.988 | 1.02 | 0.967 | 0.878 | 0.8 | 0.877 | 0.758 | 0.596 | 0.531 | 0.658 | 1.02 | 0.903 | 0.763 | 0.658 | 0.744
6 | Calu-6 | 1.1 | 1.05 | 0.954 | 1.07 | 1.03 | 1.01 | 1.03 | 0.973 | 0.851 | 0.491 | 0.914 | 0.653 | 0.24 | 0.141 | 0.134 | 0.911 | 0.919 | 0.793 | 0.789 | 0.415
7 | HCC-78 | 0.984 | 1.06 | 1 | 0.976 | 0.904 | 1.09 | 0.982 | 1.02 | 0.927 | 0.905 | 0.968 | 0.771 | 0.849 | 0.323 | 0.265 | 0.616 | 0.555 | 0.54 | 0.526 | 0.545
8 | LU99A | 1.04 | 0.985 | 0.912 | 1.02 | 0.904 | 1.15 | 1.08 | 1.03 | 0.901 | 0.702 | 0.918 | 0.601 | 0.405 | 0.178 | 0.195 | 0.794 | 0.749 | 0.752 | 0.713 | 0.522
9 | NCI-H520 | 1.21 | 0.979 | 0.932 | 1.22 | 1.03 | 1.01 | 0.915 | 0.947 | 0.962 | 0.822 | 0.706 | 0.563 | 0.533 | 0.24 | 0.243 | 0.905 | 0.815 | 0.795 | 0.831 | 0.575
10 | NCI-H661 | 1.03 | 0.945 | 0.986 | 1.03 | 1 | 0.993 | 1.01 | 0.984 | 0.938 | 0.903 | 0.894 | 0.857 | 0.686 | 0.421 | 0.426 | 1.01 | 0.982 | 0.984 | 1 | 0.842
11 | NCI-H1975 | 0.961 | 0.888 | 0.93 | 0.923 | 0.934 | 1 | 0.944 | 0.968 | 0.931 | 0.9 | 0.96 | 1.14 | 1.38 | 0.843 | 0.447 | 1.08 | 1.02 | 0.782 | 0.88 | 0.946
12 | NCI-H1355 | 1.08 | 0.982 | 0.975 | 1.06 | 1.01 | 1.09 | 1.05 | 0.989 | 1 | 0.876 | 0.976 | 1.01 | 0.783 | 0.369 | 0.34 | 0.979 | 0.994 | 1.02 | 0.956 | 0.895
13 | NCI-H1755 | 1.04 | 1.06 | 0.978 | 1 | 1.06 | 1.05 | 1.03 | 1.04 | 1 | 0.966 | 0.954 | 0.905 | 0.547 | 0.255 | 0.198 | 1.01 | 0.897 | 0.899 | 0.929 | 0.86
14 | NCI-H2009 | 1.12 | 0.997 | 0.988 | 0.988 | 1.06 | 1.05 | 0.971 | 0.95 | 0.951 | 0.683 | 0.823 | 0.439 | 0.287 | 0.136 | 0.0977 | 1.25 | 1.18 | 1.12 | 1 | 0.767
15 | LK-2 | 1.01 | 0.988 | 0.985 | 1.08 | 0.994 | 1.11 | 0.943 | 0.947 | 0.937 | 1.06 | 0.971 | 0.787 | 0.618 | 0.245 | 0.239 | 1.46 | 1.24 | 1.17 | 1.01 | 1.26
16 | HCC-827 | 1.05 | 1.06 | 1.01 | 1.01 | 0.993 | 1.09 | 1.01 | 1.01 | 1.01 | 0.983 | 0.972 | 0.852 | 0.704 | 0.253 | 0.183 | 1.05 | 1.03 | 1.01 | 0.995 | 0.912
